Data published in US9695155B2, “Herbicidal substituted pyrimidinyloxy benzene compounds” (E. I. DU PONT DE NEMOURS AND COMPANY, priority 2013, dated 2017).

Legend:
ragweed [1] = assay: Test A preemergence; assay type: in vivo, Ambrosia elatior; settings: for Plant response rating, Ragweed: 31 g ai/ha, 0 to 100 scale where 0 is no effect and 100 is complete control, visual, approximately 10 days; for Ragweed plant response rating (0 to 100 scale): 125 g ai/ha
Outline: (§1)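 Visual injury scored 0–100 (100 = complete control) against untreated controls about 10 days after treatment in a greenhouse. Test chemicals, formulated with surfactant in non-phytotoxic solvent, were sprayed on soil preemergence or on 2-10 cm, one- to two-leaf plants postemergence.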

corn = assay: Test A postemergence; assay type: in vivo, Zea mays; settings: 0 to 100 scale, 0 no effect, 100 complete control
Outline: as §1

rice = assay: Test B flooded paddy test; assay type: in vivo, Oryza sativa; settings: Flood, 250 g ai/ha; 0 to 100 scale where 0 is no effect and 100 is complete control
Outline: (§2)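 Post-emergence paddy-water application at the 2-leaf stage, with 3 cm flood kept for the whole test. Response was judged visually relative to controls after 13 to 15 greenhouse days, 0 indicating no effect and 100 complete control.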

barnyardgrass [2] = assay: Test B flooded paddy test; assay type: in vivo, Echinochloa crus-galli; settings: Flood, 250 g ai/ha; 0 to 100 scale where 0 is no effect and 100 is complete control
Outline: as §2

kochia [3] = assay: Test A postemergence; assay type: in vivo, Kochia scoparia; settings: 0 to 100 scale, 0 no effect, 100 complete control
Outline: as §1

blackgrass = assay: Test A postemergence; assay type: in vivo, Alopecurus myosuroides; settings: 0 to 100 scale, 0 no effect, 100 complete control
Outline: as §1

pigweed [4] = assay: Test A preemergence; assay type: in vivo, Amaranthus retroflexus; settings: for Plant response rating, Pigweed: 31 g ai/ha, 0 to 100 scale where 0 is no effect and 100 is complete control, visual, approximately 10 days; for Pigweed plant response rating (0 to 100 scale): 125 g ai/ha
Outline: as §1

giant foxtail [5] = assay: Test A preemergence; assay type: in vivo, Setaria faberii; settings: for Plant response rating, Foxtail, Giant: 31 g ai/ha, 0 to 100 scale where 0 is no effect and 100 is complete control, visual, approximately 10 days; for Foxtail, Giant plant response rating (0 to 100 scale): 125 g ai/ha
Outline: as §1

sedge, umbrella = assay: Test B flooded paddy test; assay type: in vivo, Cyperus difformis; settings: Flood, 250 g ai/ha; 0 to 100 scale where 0 is no effect and 100 is complete control
Outline: as §2

Heteranthera limosa = assay: Test B flooded paddy test; assay type: in vivo; settings: Flood, 250 g ai/ha; 0 to 100 scale where 0 is no effect and 100 is complete control
Outline: as §2

Italian ryegrass [6] = assay: Test A preemergence; assay type: in vivo, Lolium multiflorum; settings: for Plant response rating, Ryegrass, Italian: 31 g ai/ha, 0 to 100 scale where 0 is no effect and 100 is complete control, visual, approximately 10 days; for Ryegrass, Italian plant response rating (0 to 100 scale): 125 g ai/ha
Outline: as §1

pigweed [7] = assay: Test A postemergence; assay type: in vivo, Amaranthus retroflexus; settings: 0 to 100 scale, 0 no effect, 100 complete control
Outline: as §1

kochia [8] = assay: Test A preemergence; assay type: in vivo, Kochia scoparia; settings: for Plant response rating, Kochia: 31 g ai/ha, 0 to 100 scale where 0 is no effect and 100 is complete control, visual, approximately 10 days; for Kochia plant response rating (0 to 100 scale): 125 g ai/ha
Outline: as §1

galium = assay: Test A postemergence; assay type: in vivo, Galium aparine; settings: 0 to 100 scale, 0 no effect, 100 complete control
Outline: as §1

giant foxtail [9] = assay: Test A postemergence; assay type: in vivo, Setaria faberii; settings: 0 to 100 scale, 0 no effect, 100 complete control
Outline: as §1

barnyardgrass [10] = assay: Test A preemergence; assay type: in vivo, Echinochloa crus-galli; settings: for Plant response rating, Barnyardgrass: 31 g ai/ha, 0 to 100 scale where 0 is no effect and 100 is complete control, visual, approximately 10 days; for Barnyardgrass plant response rating (0 to 100 scale, 0 is no effect, 100 is complete control): 125 g ai/ha
Outline: as §1

ragweed [11] = assay: Test A postemergence; assay type: in vivo, Ambrosia elatior; settings: 0 to 100 scale, 0 no effect, 100 complete control
Outline: as §1

barnyardgrass [12] = assay: Test A postemergence; assay type: in vivo, Echinochloa crus-galli; settings: 0 to 100 scale, 0 no effect, 100 complete control
Outline: as §1

Italian ryegrass [13] = assay: Test A postemergence; assay type: in vivo, Lolium multiflorum; settings: 0 to 100 scale, 0 no effect, 100 complete control
Outline: as §1

wheat = assay: Test A postemergence; assay type: in vivo, Triticum aestivum; settings: 0 to 100 scale, 0 no effect, 100 complete control
Outline: as §1

| Compound | Plant response rating, Ragweed (ragweed [1]) | Ragweed plant response rating (0 to 100 scale) (ragweed [1]) | Plant response rating, Corn (corn; 31 g ai/ha) | Plant response rating, Corn (corn; 125 g ai/ha) | Plant response rating, Rice (rice) | Plant response rating, Barnyardgrass (barnyardgrass [2]) | Plant response rating, Kochia (kochia [3]; 31 g ai/ha) | Plant response rating, Kochia (kochia [3]; 125 g ai/ha) | Plant response rating, Blackgrass (blackgrass; 31 g ai/ha) | Plant response rating, Blackgrass (blackgrass; 125 g ai/ha) | Plant response rating, Pigweed (pigweed [4]) | Pigweed plant response rating (0 to 100 scale) (pigweed [4]) | Plant response rating, Foxtail, Giant (giant foxtail [5]) | Foxtail, Giant plant response rating (0 to 100 scale) (giant foxtail [5]) | Plant response rating, Sedge, Umbrella (sedge, umbrella) | Plant response rating, Ducksalad (Heteranthera limosa) | Plant response rating, Ryegrass, Italian (Italian ryegrass [6]) | Ryegrass, Italian plant response rating (0 to 100 scale) (Italian ryegrass [6]) | Plant response rating, Pigweed (pigweed [7]; 31 g ai/ha) | Plant response rating, Pigweed (pigweed [7]; 125 g ai/ha) | also measured |
| --- | --- | --- | --- | --- | --- | --- | --- | --- | --- | --- | --- | --- | --- | --- | --- | --- | --- | --- | --- | --- | --- |
| Cc1cc(C(F)F)nn1-c1ccccc1Oc1ncc(Cl)cn1 [Compound 267] | 0 | 0 | 0 | 0 | 0 | 0 | 0 | 0 | 0 | 0 | 0 | 0 | 0 | 0 | 0 | 0 | 0 | 0 | 0 | 0 | Plant response rating, Kochia (kochia [8]): 0; Kochia plant response rating (0 to 100 scale) (kochia [8]): 0; Plant response rating, Galium (galium; 31 g ai/ha): 0; Plant response rating, Galium (galium; 125 g ai/ha): 10; Plant response rating, Foxtail, Giant (giant foxtail [9]; 31 g ai/ha): 0; Plant response rating, Foxtail, Giant (giant foxtail [9]; 125 g ai/ha): 0; Plant response rating, Barnyardgrass (barnyardgrass [10]): 0; Barnyardgrass plant response rating (0 to 100 scale, 0 is no effect, 100 is complete control) (barnyardgrass [10]): 0; Plant response rating, Ragweed (ragweed [11]; 31 g ai/ha): 0; Plant response rating, Ragweed (ragweed [11]; 125 g ai/ha): 0; Plant response rating, Barnyardgrass (barnyardgrass [12]; 31 g ai/ha): 0; Plant response rating, Barnyardgrass (barnyardgrass [12]; 125 g ai/ha): 0; Plant response rating, Ryegrass, Italian (Italian ryegrass [13]; 31 g ai/ha): 0; Plant response rating, Ryegrass, Italian (Italian ryegrass [13]; 125 g ai/ha): 0; Plant response rating, Wheat (wheat; 31 g ai/ha): 0; Plant response rating, Wheat (wheat; 125 g ai/ha): 0 |
| Clc1cnc(Oc2ccccc2-n2cccc2)nc1 [Compound 269] | 0 | 0 | 0 | 0 | 0 | 0 | 0 | 0 | 0 | 0 | 0 | 0 | 0 | 0 | 0 | 0 | 0 | 0 | 0 | 0 | Plant response rating, Kochia (kochia [8]): 0; Kochia plant response rating (0 to 100 scale) (kochia [8]): 0; Plant response rating, Galium (galium; 31 g ai/ha): 0; Plant response rating, Galium (galium; 125 g ai/ha): 0; Plant response rating, Foxtail, Giant (giant foxtail [9]; 31 g ai/ha): 0; Plant response rating, Foxtail, Giant (giant foxtail [9]; 125 g ai/ha): 0; Plant response rating, Barnyardgrass (barnyardgrass [10]): 0; Barnyardgrass plant response rating (0 to 100 scale, 0 is no effect, 100 is complete control) (barnyardgrass [10]): 0; Plant response rating, Ragweed (ragweed [11]; 31 g ai/ha): 0; Plant response rating, Ragweed (ragweed [11]; 125 g ai/ha): 0; Plant response rating, Barnyardgrass (barnyardgrass [12]; 31 g ai/ha): 0; Plant response rating, Barnyardgrass (barnyardgrass [12]; 125 g ai/ha): 0; Plant response rating, Ryegrass, Italian (Italian ryegrass [13]; 31 g ai/ha): 0; Plant response rating, Ryegrass, Italian (Italian ryegrass [13]; 125 g ai/ha): 0; Plant response rating, Wheat (wheat; 31 g ai/ha): 0; Plant response rating, Wheat (wheat; 125 g ai/ha): 0 |
| Fc1cccc(Oc2ncc(Cl)cn2)c1-n1cc(-c2ccsc2)nn1 [Compound 277] | 0 | 0 | 0 | 20 | 0 | 0 | 60 | 70 | 30 | 50 | 30 | 60 | 30 | 70 | 80 | 80 | 0 | 0 | 60 | 70 | Plant response rating, Kochia (kochia [8]): 0; Kochia plant response rating (0 to 100 scale) (kochia [8]): 0; Plant response rating, Galium (galium; 31 g ai/ha): 100; Plant response rating, Galium (galium; 125 g ai/ha): 100; Plant response rating, Foxtail, Giant (giant foxtail [9]; 31 g ai/ha): 40; Plant response rating, Foxtail, Giant (giant foxtail [9]; 125 g ai/ha): 70; Plant response rating, Barnyardgrass (barnyardgrass [10]): 0; Barnyardgrass plant response rating (0 to 100 scale, 0 is no effect, 100 is complete control) (barnyardgrass [10]): 0; Plant response rating, Ragweed (ragweed [11]; 31 g ai/ha): 50; Plant response rating, Ragweed (ragweed [11]; 125 g ai/ha): 60; Plant response rating, Barnyardgrass (barnyardgrass [12]; 31 g ai/ha): 20; Plant response rating, Barnyardgrass (barnyardgrass [12]; 125 g ai/ha): 40; Plant response rating, Ryegrass, Italian (Italian ryegrass [13]; 31 g ai/ha): 30; Plant response rating, Ryegrass, Italian (Italian ryegrass [13]; 125 g ai/ha): 50; Plant response rating, Wheat (wheat; 31 g ai/ha): 0; Plant response rating, Wheat (wheat; 125 g ai/ha): 0 |
| NC(=O)c1cccc(Oc2ncc(Cl)cn2)c1-n1cc(C(F)(F)F)cn1 [Compound 278] | 0 | 0 | 0 | 0 | 0 | 0 | 0 | 0 | 0 | 0 | 0 | 10 | 0 | 0 | 0 | 0 | 0 | 0 | 0 | 10 | Plant response rating, Kochia (kochia [8]): 0; Kochia plant response rating (0 to 100 scale) (kochia [8]): 0; Plant response rating, Galium (galium; 31 g ai/ha): 0; Plant response rating, Galium (galium; 125 g ai/ha): 10; Plant response rating, Foxtail, Giant (giant foxtail [9]; 31 g ai/ha): 0; Plant response rating, Foxtail, Giant (giant foxtail [9]; 125 g ai/ha): 0; Plant response rating, Barnyardgrass (barnyardgrass [10]): 0; Barnyardgrass plant response rating (0 to 100 scale, 0 is no effect, 100 is complete control) (barnyardgrass [10]): 0; Plant response rating, Ragweed (ragweed [11]; 31 g ai/ha): 0; Plant response rating, Ragweed (ragweed [11]; 125 g ai/ha): 10; Plant response rating, Barnyardgrass (barnyardgrass [12]; 31 g ai/ha): 0; Plant response rating, Barnyardgrass (barnyardgrass [12]; 125 g ai/ha): 0; Plant response rating, Ryegrass, Italian (Italian ryegrass [13]; 31 g ai/ha): 0; Plant response rating, Ryegrass, Italian (Italian ryegrass [13]; 125 g ai/ha): 0; Plant response rating, Wheat (wheat; 31 g ai/ha): 0; Plant response rating, Wheat (wheat; 125 g ai/ha): 0 |
